Experimental data taken from patent publication US12162840B2, “Herbicidal compositions” (SYNGENTA PARTICIPATIONS AG, priority 2018, dated 2024).

What was measured:
Format in all cases: in vivo
[1] = test system: cool season plant species; assay: B2 Post-emergence efficacy Test 2, cool season plant species; settings: 15 days after application, 0=no damage, 100=total kill
Description: Seeds of a variety of test species (see Table B1) were sown in standard soil in pots. After cultivation for 12 days (post-emergence) under controlled conditions in a glasshouse (at 24/18° C. or 20/16° C., at day/night; 16 hours light; 65% humidity), the plants were sprayed with an aqueous spray solution derived from the formulation of the technical active ingredient dissolved in IF50 (see Table B2 for composition) and adjuvant (Genapol XO80) was added to the spray solution at a rate of 0.2% v/v. [table] [table] After application, the test plants were grown in a glasshouse under controlled conditions (as above) and watered twice daily. Herbicidal activity was evaluated 15 days after application on a 0-100 scale. The results, where 0=no damage to test plant and 100=total kill of test plant are shown below in Tables 6 to 9.

[2] = test system: Solanum nigrum (SOLNI); assay: B1 Post-emergence efficacy Test 1; settings: post-emergence application, 1000 g/ha, evaluated after 13 days
Description: (§1) Seeds of a variety of test species are sown in standard soil in pots:—Solanum nigrum (SOLNI), Amaranthus retoflexus (AMARE), Setaria faberi (SETFA), Alopecurus myosuroides (ALOMY), Echinochloa crus-galli (ECHCG), Ipomoea hederacea (IPOHE), Lolium perenne (LOLPE). After 8 days cultivation (post-emergence) under controlled conditions in a glasshouse (at 24/16° C., day/night; 14 hours light; 65% humidity), the plants are sprayed with an aqueous spray solution derived from the formulation of the technical active ingredient in acetone/water (50:50) solution containing 0.5% Tween 20 (polyoxyethylene sorbitan monolaurate, CAS RN 9005-64-5). Compounds are applied at 1000 g/ha. The test plants are then grown in a glasshouse under controlled conditions in a glasshouse (at 24/16° C., day/night; 14 hours light; 65% humidity) and watered twice daily. After 13 days, the test is evaluated for the percentage damage caused to the plant. The biological activities are assessed on a five point scale (5=80-100%; 4=60-79%; 3=40-59%; 2=20-39%; 1=0-19%). A blank value in the table is indicative that the compound was not tested on that species.

[3] = test system: Amaranthus retoflexus (AMARE); assay: B1 Post-emergence efficacy Test 1; settings: post-emergence application, 1000 g/ha, evaluated after 13 days
Description: as §1

[4] = test system: Echinochloa crus-galli (ECHCG); assay: B1 Post-emergence efficacy Test 1; settings: post-emergence application, 1000 g/ha, evaluated after 13 days
Description: as §1

[5] = test system: Lolium perenne (LOLPE); assay: B1 Post-emergence efficacy Test 1; settings: post-emergence application, 1000 g/ha, evaluated after 13 days
Description: as §1

[6] = test system: Setaria faberi (SETFA); assay: B1 Post-emergence efficacy Test 1; settings: post-emergence application, 1000 g/ha, evaluated after 13 days
Description: as §1

[7] = test system: Ipomoea hederacea (IPOHE); assay: B1 Post-emergence efficacy Test 1; settings: post-emergence application, 1000 g/ha, evaluated after 13 days
Description: as §1

Cc1nn(C)c(=O)c(-c2c(F)ccc(Cl)c2CCc2ccc(C#N)cc2)c1O [Compound 1.024]
0: Herbicidal activity (0-100 scale) BROTE ([1]; 15 g/Ha) | Herbicidal activity (0-100 scale) BROTE ([1]; 30 g/Ha) | Herbicidal activity (0-100 scale) HORVW ([1]; 15 g/Ha) | Herbicidal activity (0-100 scale) KCHSC ([1]; 15 g/Ha) | Herbicidal activity (0-100 scale) KCHSC ([1]; 30 g/Ha) | Herbicidal activity (0-100 scale) KCHSC ([1]; 60 g/Ha) | Herbicidal activity (0-100 scale) TRZAW ([1]; 15 g/Ha) | Herbicidal activity (0-100 scale) TRZAW ([1]; 30 g/Ha)
10: Herbicidal activity (0-100 scale) ALOMY ([1]; 15 g/Ha) | Herbicidal activity (0-100 scale) AVEFA ([1]; 15 g/Ha) | Herbicidal activity (0-100 scale) BROTE ([1]; 60 g/Ha) | Herbicidal activity (0-100 scale) HORVW ([1]; 30 g/Ha) | Herbicidal activity (0-100 scale) HORVW ([1]; 60 g/Ha) | Herbicidal activity (0-100 scale) HORVW ([1]; 125 g/Ha) | Herbicidal activity (0-100 scale) HORVW ([1]; 250 g/Ha) | Herbicidal activity (0-100 scale) KCHSC ([1]; 125 g/Ha) | Herbicidal activity (0-100 scale) KCHSC ([1]; 250 g/Ha) | Herbicidal activity (0-100 scale) LOLPE ([1]; 15 g/Ha) | Herbicidal activity (0-100 scale) POAAN ([1]; 15 g/Ha)
5 (5=80-100%): percentage damage caused to the plant, five point scale, SOLNI [2] | percentage damage caused to the plant, five point scale, AMARE [3] | percentage damage caused to the plant, five point scale, ECHCG [4] | percentage damage caused to the plant, five point scale, LOLPE [5] | percentage damage caused to the plant, five point scale, SETFA [6] | percentage damage caused to the plant, five point scale, IPOHE [7]
50: Herbicidal activity (0-100 scale) ALOMY ([1]; 60 g/Ha)
80: Herbicidal activity (0-100 scale) AVEFA ([1]; 500 g/Ha) | Herbicidal activity (0-100 scale) BEAVA ([1]; 60 g/Ha) | Herbicidal activity (0-100 scale) BEAVA ([1]; 125 g/Ha) | Herbicidal activity (0-100 scale) BEAVA ([1]; 250 g/Ha) | Herbicidal activity (0-100 scale) BRSNN ([1]; 15 g/Ha) | Herbicidal activity (0-100 scale) POAAN ([1]; 125 g/Ha) | Herbicidal activity (0-100 scale) POAAN ([1]; 250 g/Ha) | Herbicidal activity (0-100 scale) POLCO ([1]; 15 g/Ha) | Herbicidal activity (0-100 scale) SINAR ([1]; 15 g/Ha) | Herbicidal activity (0-100 scale) SINAR ([1]; 30 g/Ha) | Herbicidal activity (0-100 scale) SINAR ([1]; 60 g/Ha) | Herbicidal activity (0-100 scale) VERPE ([1]; 15 g/Ha) | Herbicidal activity (0-100 scale) VERPE ([1]; 30 g/Ha) | Herbicidal activity (0-100 scale) VERPE ([1]; 125 g/Ha)
20: Herbicidal activity (0-100 scale) AVEFA ([1]; 30 g/Ha) | Herbicidal activity (0-100 scale) BROTE ([1]; 125 g/Ha) | Herbicidal activity (0-100 scale) GALAP ([1]; 30 g/Ha) | Herbicidal activity (0-100 scale) GALAP ([1]; 60 g/Ha) | Herbicidal activity (0-100 scale) HORVW ([1]; 500 g/Ha) | Herbicidal activity (0-100 scale) KCHSC ([1]; 500 g/Ha) | Herbicidal activity (0-100 scale) POAAN ([1]; 30 g/Ha) | Herbicidal activity (0-100 scale) TRZAW ([1]; 60 g/Ha)
100: Herbicidal activity (0-100 scale) BEAVA ([1]; 500 g/Ha) | Herbicidal activity (0-100 scale) CHEAL ([1]; 500 g/Ha) | Herbicidal activity (0-100 scale) POLCO ([1]; 500 g/Ha) | Herbicidal activity (0-100 scale) SINAR ([1]; 500 g/Ha) | Herbicidal activity (0-100 scale) STEME ([1]; 500 g/Ha) | Herbicidal activity (0-100 scale) VERPE ([1]; 250 g/Ha) | Herbicidal activity (0-100 scale) VERPE ([1]; 500 g/Ha)
40: Herbicidal activity (0-100 scale) BROTE ([1]; 250 g/Ha)
30: Herbicidal activity (0-100 scale) ALOMY ([1]; 30 g/Ha) | Herbicidal activity (0-100 scale) AVEFA ([1]; 60 g/Ha) | Herbicidal activity (0-100 scale) POAAN ([1]; 60 g/Ha) | Herbicidal activity (0-100 scale) TRZAW ([1]; 125 g/Ha)
70: Herbicidal activity (0-100 scale) ALOMY ([1]; 125 g/Ha) | Herbicidal activity (0-100 scale) ALOMY ([1]; 250 g/Ha) | Herbicidal activity (0-100 scale) ALOMY ([1]; 500 g/Ha) | Herbicidal activity (0-100 scale) AVEFA ([1]; 250 g/Ha) | Herbicidal activity (0-100 scale) BEAVA ([1]; 15 g/Ha) | Herbicidal activity (0-100 scale) BEAVA ([1]; 30 g/Ha) | Herbicidal activity (0-100 scale) BROTE ([1]; 500 g/Ha) | Herbicidal activity (0-100 scale) LOLPE ([1]; 30 g/Ha) | Herbicidal activity (0-100 scale) LOLPE ([1]; 60 g/Ha) | Herbicidal activity (0-100 scale) TRZAW ([1]; 500 g/Ha)
90: Herbicidal activity (0-100 scale) BRSNN ([1]; 30 g/Ha) | Herbicidal activity (0-100 scale) BRSNN ([1]; 60 g/Ha) | Herbicidal activity (0-100 scale) BRSNN ([1]; 125 g/Ha) | Herbicidal activity (0-100 scale) BRSNN ([1]; 250 g/Ha) | Herbicidal activity (0-100 scale) BRSNN ([1]; 500 g/Ha) | Herbicidal activity (0-100 scale) CHEAL ([1]; 30 g/Ha) | Herbicidal activity (0-100 scale) CHEAL ([1]; 60 g/Ha) | Herbicidal activity (0-100 scale) CHEAL ([1]; 125 g/Ha) | Herbicidal activity (0-100 scale) CHEAL ([1]; 250 g/Ha) | Herbicidal activity (0-100 scale) GALAP ([1]; 250 g/Ha) | Herbicidal activity (0-100 scale) GALAP ([1]; 500 g/Ha) | Herbicidal activity (0-100 scale) LOLPE ([1]; 125 g/Ha) | Herbicidal activity (0-100 scale) LOLPE ([1]; 250 g/Ha) | Herbicidal activity (0-100 scale) LOLPE ([1]; 500 g/Ha) | Herbicidal activity (0-100 scale) POAAN ([1]; 500 g/Ha) | Herbicidal activity (0-100 scale) POLCO ([1]; 60 g/Ha) | Herbicidal activity (0-100 scale) POLCO ([1]; 125 g/Ha) | Herbicidal activity (0-100 scale) POLCO ([1]; 250 g/Ha) | Herbicidal activity (0-100 scale) SINAR ([1]; 250 g/Ha) | Herbicidal activity (0-100 scale) STEME ([1]; 15 g/Ha) | Herbicidal activity (0-100 scale) STEME ([1]; 30 g/Ha) | Herbicidal activity (0-100 scale) STEME ([1]; 60 g/Ha) | Herbicidal activity (0-100 scale) STEME ([1]; 125 g/Ha) | Herbicidal activity (0-100 scale) STEME ([1]; 250 g/Ha) | Herbicidal activity (0-100 scale) VERPE ([1]; 60 g/Ha)
60: Herbicidal activity (0-100 scale) AVEFA ([1]; 125 g/Ha) | Herbicidal activity (0-100 scale) CHEAL ([1]; 15 g/Ha) | Herbicidal activity (0-100 scale) GALAP ([1]; 125 g/Ha) | Herbicidal activity (0-100 scale) TRZAW ([1]; 250 g/Ha)
